± gives the expanded uncertainty stated by the source.
Assay: xn = mol fraction of the nth substance listed
Details: 101 kPa, Liquid; for speed of sound: Sing-around technique in a fixed-path interferometer; for mass density: Vibrating tube method

CCCCn1cc[n+](C)c1C.F[B-](F)(F)F [1-butyl-2,3-dimethylimidazolium tetrafluoroborate] + OCCO
speed of sound (288.15 K, x1 = 0.0698): 1674 ± 2.2 m/s | speed of sound (288.15 K, x1 = 0.1114): 1668.1 ± 2.2 m/s | speed of sound (288.15 K, x1 = 0.219): 1661.9 ± 2.2 m/s | speed of sound (288.15 K, x1 = 0.3157): 1657 ± 2.2 m/s | speed of sound (288.15 K, x1 = 0.4167): 1653.7 ± 2.2 m/s | speed of sound (288.15 K, x1 = 0.5153): 1652.5 ± 2.2 m/s | speed of sound (288.15 K, x1 = 0.6157): 1653.1 ± 2.2 m/s | speed of sound (288.15 K, x1 = 0.7042): 1654.9 ± 2.2 m/s | speed of sound (288.15 K, x1 = 0.8028): 1658 ± 2.2 m/s | speed of sound (288.15 K, x1 = 0.9065): 1662.1 ± 2.1 m/s | mass density (288.15 K, x1 = 0.0698): 1138.16 ± 0.17 kg/m3 | mass density (288.15 K, x1 = 0.1114): 1148.04 ± 0.17 kg/m3 | mass density (288.15 K, x1 = 0.219): 1163.09 ± 0.17 kg/m3 | mass density (288.15 K, x1 = 0.3157): 1172.24 ± 0.17 kg/m3 | mass density (288.15 K, x1 = 0.4167): 1177.8 ± 0.17 kg/m3 | mass density (288.15 K, x1 = 0.5153): 1181.99 ± 0.17 kg/m3 | mass density (288.15 K, x1 = 0.6157): 1185.96 ± 0.16 kg/m3 | mass density (288.15 K, x1 = 0.7042): 1189.36 ± 0.16 kg/m3 | mass density (288.15 K, x1 = 0.8028): 1192.88 ± 0.16 kg/m3 | mass density (288.15 K, x1 = 0.9065): 1196.58 ± 0.15 kg/m3 | speed of sound (293.15 K, x1 = 0.0698): 1661 ± 2.2 m/s | speed of sound (293.15 K, x1 = 0.1114): 1655.6 ± 2.2 m/s | speed of sound (293.15 K, x1 = 0.219): 1649.5 ± 2.2 m/s | speed of sound (293.15 K, x1 = 0.3157): 1643.8 ± 2.2 m/s | speed of sound (293.15 K, x1 = 0.4167): 1639.4 ± 2.2 m/s | speed of sound (293.15 K, x1 = 0.5153): 1638 ± 2.2 m/s | speed of sound (293.15 K, x1 = 0.6157): 1638.7 ± 2.2 m/s | speed of sound (293.15 K, x1 = 0.7042): 1641.5 ± 2.2 m/s | speed of sound (293.15 K, x1 = 0.8028): 1645.2 ± 2.2 m/s | speed of sound (293.15 K, x1 = 0.9065): 1649.9 ± 2.1 m/s | mass density (293.15 K, x1 = 0.0698): 1134.55 ± 0.17 kg/m3 | mass density (293.15 K, x1 = 0.1114): 1144.09 ± 0.17 kg/m3 | mass density (293.15 K, x1 = 0.219): 1159.15 ± 0.17 kg/m3 | mass density (293.15 K, x1 = 0.3157): 1167.38 ± 0.17 kg/m3 | mass density (293.15 K, x1 = 0.4167): 1172.09 ± 0.17 kg/m3 | mass density (293.15 K, x1 = 0.5153): 1176.32 ± 0.16 kg/m3 | mass density (293.15 K, x1 = 0.6157): 1180.66 ± 0.16 kg/m3 | mass density (293.15 K, x1 = 0.7042): 1184.47 ± 0.16 kg/m3 | mass density (293.15 K, x1 = 0.8028): 1188.27 ± 0.15 kg/m3 | mass density (293.15 K, x1 = 0.9065): 1192.09 ± 0.15 kg/m3 | speed of sound (298.15 K, x1 = 0.0698): 1648.8 ± 2.2 m/s | speed of sound (298.15 K, x1 = 0.1114): 1643.3 ± 2.2 m/s | speed of sound (298.15 K, x1 = 0.219): 1636.8 ± 2.2 m/s | speed of sound (298.15 K, x1 = 0.3157): 1631.4 ± 2.2 m/s | speed of sound (298.15 K, x1 = 0.4167): 1628.2 ± 2.2 m/s | speed of sound (298.15 K, x1 = 0.5153): 1627.1 ± 2.2 m/s | speed of sound (298.15 K, x1 = 0.6157): 1627.5 ± 2.2 m/s | speed of sound (298.15 K, x1 = 0.7042): 1630.3 ± 2.2 m/s | speed of sound (298.15 K, x1 = 0.8028): 1633.5 ± 2.1 m/s | speed of sound (298.15 K, x1 = 0.9065): 1637.7 ± 2.1 m/s | mass density (298.15 K, x1 = 0.0698): 1130.93 ± 0.17 kg/m3 | mass density (298.15 K, x1 = 0.1114): 1140.43 ± 0.17 kg/m3 | mass density (298.15 K, x1 = 0.219): 1155.3 ± 0.17 kg/m3 | mass density (298.15 K, x1 = 0.3157): 1162.95 ± 0.17 kg/m3 | mass density (298.15 K, x1 = 0.4167): 1167.85 ± 0.17 kg/m3 | mass density (298.15 K, x1 = 0.5153): 1171.8 ± 0.16 kg/m3 | mass density (298.15 K, x1 = 0.6157): 1176.73 ± 0.16 kg/m3 | mass density (298.15 K, x1 = 0.7042): 1180.56 ± 0.16 kg/m3 | mass density (298.15 K, x1 = 0.8028): 1184.59 ± 0.15 kg/m3 | mass density (298.15 K, x1 = 0.9065): 1188.59 ± 0.15 kg/m3 | speed of sound (303.15 K, x1 = 0.0698): 1637 ± 2.2 m/s | speed of sound (303.15 K, x1 = 0.1114): 1631.5 ± 2.2 m/s | speed of sound (303.15 K, x1 = 0.219): 1624.4 ± 2.2 m/s | speed of sound (303.15 K, x1 = 0.3157): 1619.7 ± 2.2 m/s | speed of sound (303.15 K, x1 = 0.4167): 1616.6 ± 2.2 m/s | speed of sound (303.15 K, x1 = 0.5153): 1615.5 ± 2.2 m/s | speed of sound (303.15 K, x1 = 0.6157): 1616.5 ± 2.2 m/s | speed of sound (303.15 K, x1 = 0.7042): 1618.8 ± 2.2 m/s | speed of sound (303.15 K, x1 = 0.8028): 1621.7 ± 2.1 m/s | speed of sound (303.15 K, x1 = 0.9065): 1625.7 ± 2.1 m/s | mass density (303.15 K, x1 = 0.0698): 1127.3 ± 0.17 kg/m3 | mass density (303.15 K, x1 = 0.1114): 1136.79 ± 0.17 kg/m3 | mass density (303.15 K, x1 = 0.219): 1151.47 ± 0.17 kg/m3 | mass density (303.15 K, x1 = 0.3157): 1158.29 ± 0.16 kg/m3 | mass density (303.15 K, x1 = 0.4167): 1162.58 ± 0.16 kg/m3 | mass density (303.15 K, x1 = 0.5153): 1166.36 ± 0.16 kg/m3 | mass density (303.15 K, x1 = 0.6157): 1171.53 ± 0.16 kg/m3 | mass density (303.15 K, x1 = 0.7042): 1176.14 ± 0.15 kg/m3 | mass density (303.15 K, x1 = 0.8028): 1180.73 ± 0.15 kg/m3 | mass density (303.15 K, x1 = 0.9065): 1185.16 ± 0.15 kg/m3 | speed of sound (308.15 K, x1 = 0.0698): 1625.3 ± 2.2 m/s | speed of sound (308.15 K, x1 = 0.1114): 1619.4 ± 2.2 m/s | speed of sound (308.15 K, x1 = 0.219): 1612.2 ± 2.2 m/s | speed of sound (308.15 K, x1 = 0.3157): 1607.7 ± 2.2 m/s | speed of sound (308.15 K, x1 = 0.4167): 1604.7 ± 2.2 m/s | speed of sound (308.15 K, x1 = 0.5153): 1604.2 ± 2.2 m/s | speed of sound (308.15 K, x1 = 0.6157): 1605 ± 2.2 m/s | speed of sound (308.15 K, x1 = 0.7042): 1607.4 ± 2.1 m/s | speed of sound (308.15 K, x1 = 0.8028): 1610.5 ± 2.1 m/s | speed of sound (308.15 K, x1 = 0.9065): 1613.7 ± 2.1 m/s | mass density (308.15 K, x1 = 0.0698): 1123.65 ± 0.16 kg/m3 | mass density (308.15 K, x1 = 0.1114): 1133.19 ± 0.17 kg/m3 | mass density (308.15 K, x1 = 0.219): 1147.66 ± 0.17 kg/m3 | mass density (308.15 K, x1 = 0.3157): 1154.93 ± 0.16 kg/m3 | mass density (308.15 K, x1 = 0.4167): 1158.22 ± 0.16 kg/m3 | mass density (308.15 K, x1 = 0.5153): 1161.45 ± 0.16 kg/m3 | mass density (308.15 K, x1 = 0.6157): 1167.01 ± 0.16 kg/m3 | mass density (308.15 K, x1 = 0.7042): 1172.28 ± 0.15 kg/m3 | mass density (308.15 K, x1 = 0.8028): 1177.55 ± 0.15 kg/m3 | mass density (308.15 K, x1 = 0.9065): 1182.72 ± 0.15 kg/m3 | speed of sound (313.15 K, x1 = 0.0698): 1613.8 ± 2.2 m/s | speed of sound (313.15 K, x1 = 0.1114): 1607.9 ± 2.2 m/s | speed of sound (313.15 K, x1 = 0.219): 1600 ± 2.2 m/s | speed of sound (313.15 K, x1 = 0.3157): 1595.7 ± 2.2 m/s | speed of sound (313.15 K, x1 = 0.4167): 1592.9 ± 2.2 m/s | speed of sound (313.15 K, x1 = 0.5153): 1592.8 ± 2.2 m/s | speed of sound (313.15 K, x1 = 0.6157): 1594 ± 2.2 m/s | speed of sound (313.15 K, x1 = 0.7042): 1596.4 ± 2.1 m/s | speed of sound (313.15 K, x1 = 0.8028): 1598.9 ± 2.1 m/s | speed of sound (313.15 K, x1 = 0.9065): 1602 ± 2.1 m/s | mass density (313.15 K, x1 = 0.0698): 1120 ± 0.16 kg/m3 | mass density (313.15 K, x1 = 0.1114): 1129.53 ± 0.16 kg/m3 | mass density (313.15 K, x1 = 0.219): 1143.87 ± 0.17 kg/m3 | mass density (313.15 K, x1 = 0.3157): 1150.95 ± 0.16 kg/m3 | mass density (313.15 K, x1 = 0.4167): 1154.7 ± 0.16 kg/m3 | mass density (313.15 K, x1 = 0.5153): 1158.26 ± 0.16 kg/m3 | mass density (313.15 K, x1 = 0.6157): 1163.8 ± 0.15 kg/m3 | mass density (313.15 K, x1 = 0.7042): 1169.14 ± 0.15 kg/m3 | mass density (313.15 K, x1 = 0.8028): 1174.46 ± 0.15 kg/m3 | mass density (313.15 K, x1 = 0.9065): 1179.21 ± 0.15 kg/m3 | speed of sound (318.15 K, x1 = 0.0698): 1602.5 ± 2.2 m/s | speed of sound (318.15 K, x1 = 0.1114): 1596.2 ± 2.2 m/s | speed of sound (318.15 K, x1 = 0.219): 1587.9 ± 2.2 m/s | speed of sound (318.15 K, x1 = 0.3157): 1584 ± 2.2 m/s | speed of sound (318.15 K, x1 = 0.4167): 1581.2 ± 2.2 m/s | speed of sound (318.15 K, x1 = 0.5153): 1581.6 ± 2.2 m/s | speed of sound (318.15 K, x1 = 0.6157): 1582.8 ± 2.1 m/s | speed of sound (318.15 K, x1 = 0.7042): 1585.1 ± 2.1 m/s | speed of sound (318.15 K, x1 = 0.8028): 1587.7 ± 2.1 m/s | speed of sound (318.15 K, x1 = 0.9065): 1590.8 ± 2.1 m/s | mass density (318.15 K, x1 = 0.0698): 1116.33 ± 0.16 kg/m3 | mass density (318.15 K, x1 = 0.1114): 1125.84 ± 0.17 kg/m3 | mass density (318.15 K, x1 = 0.219): 1140.07 ± 0.17 kg/m3 | mass density (318.15 K, x1 = 0.3157): 1147.06 ± 0.16 kg/m3 | mass density (318.15 K, x1 = 0.4167): 1150.9 ± 0.16 kg/m3 | mass density (318.15 K, x1 = 0.5153): 1154.9 ± 0.15 kg/m3 | mass density (318.15 K, x1 = 0.6157): 1160.61 ± 0.15 kg/m3 | mass density (318.15 K, x1 = 0.7042): 1165.8 ± 0.15 kg/m3 | mass density (318.15 K, x1 = 0.8028): 1171.11 ± 0.15 kg/m3 | mass density (318.15 K, x1 = 0.9065): 1175.65 ± 0.15 kg/m3

From the NIST ThermoML archive (doi:10.1016/j.fluid.2013.08.029)
